Measured values published in patent US20190022166A1, “ORAL ANTI-INFLAMMATORY PEPTIDES TO TREAT EPILEPSY, SEIZURES AND CNS DISORDERS” (Creative Bio-Peptides Inc., priority 2017, published 2019).
“Also recorded” adds a separate entry of the source. Read-outs that look alike come from different tables or passages of the source. Where no end group is shown, it is not given here. [ ]: non-standard residue; d: D form.

Columns and labels:
[1] = target: CCR5 receptor on human monocytes (human) (UniProt P51681); assay: cell-based or functional assay
[2] = humans, neuro-AIDS; cited from earlier work
NFkB = details: Hu; phenotype M1; cited from earlier work
IL-6 [3] = details: Hu; phenotype M1; cited from earlier work
IL-1 = details: Hu; phenotype M1; cited from earlier work
IL-10 = details: Hu; phenotype M2; cited from earlier work
TNFα [4] = details: Hu; phenotype M1; cited from earlier work
activated microglia = assay: Pre-clinical animal models: neuron loss with aging, activated microglial neurotoxicity; format: in vivo
Source text: In humans DAPTA improved cognition, speed of information processing and functional brain imaging in neuro-AIDS (24, 25). Therefore, it is believed that the compounds according to the present invention have a strong potential to improve cognitive deficits in the indicated conditions due to shared neurodegenerative inflammatory mechanisms.

CCL5 = details: mouse synaptosomes; cited from earlier work
ICAM-1 = details: Hu; phenotype M1; cited from earlier work
TLR4/MyD88 [5] = details: Rat; phenotype M1; cited from earlier work
IL-4 = details: Hu; phenotype M2; cited from earlier work
IL-23 = details: Hu; phenotype M1; cited from earlier work
STAT3 = details: Hu; phenotype M1; cited from earlier work
IL-13 = details: Hu; phenotype M2; cited from earlier work
IL-8 = details: Hu; phenotype M1; cited from earlier work
CCR2 [6] = target: T1, CCR2 (Homo sapiens, UniProt P41597); assay: CCL2 (MCP-1) elicited chemotaxis of human monocytes; format: cell-based; parameters: endogenous in cells; host or cells: human monocytes; details: FIG. 3; methods similar to FIG. 2; low concentration
T1 sequence (P41597 1-360 isoform P41597-2): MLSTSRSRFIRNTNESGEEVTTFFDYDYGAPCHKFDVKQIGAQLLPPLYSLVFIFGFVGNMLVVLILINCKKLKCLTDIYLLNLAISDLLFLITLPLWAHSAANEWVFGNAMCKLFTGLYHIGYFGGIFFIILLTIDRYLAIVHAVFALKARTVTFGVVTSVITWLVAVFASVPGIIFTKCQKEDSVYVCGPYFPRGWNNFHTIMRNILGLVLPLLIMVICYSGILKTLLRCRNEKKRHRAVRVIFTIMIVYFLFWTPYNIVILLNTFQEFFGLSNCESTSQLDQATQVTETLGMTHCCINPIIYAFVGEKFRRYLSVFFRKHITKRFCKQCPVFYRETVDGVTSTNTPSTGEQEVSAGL
Protocol: Monocytes were treated with the indicated doses of RAP-103 for 30 min before chemotaxis against human CCL2 (MCP-1) or CCL4 (MIP-1β) (both 50 ng/mL) for 90 min. Data (chemotactic index) are presented as mean ±SEM. The chemotactic index for MCP-1 without RAP-103 was 2.5-3.5 times over control, whereas for MIP-1 ? without RAP-103, it was approximately 2 times over control. Data are presented as mean ±SEM. (*P<0.05, **P<0.01 vs RAP-103 untreated). Data are from (12), FIG. 1. […] Dual-chemokine CCR2/CCR5 receptor antagonists may have added therapeutic value by blocking multiple inflammatory pathways.
The methods employed are similar to those in FIG. 2.

CCR2 [7] = target: T1, CCR2; details: 30 min pretreatment, CCL2 50 ng/mL for 90 min, FIG. 2, cited from earlier work
IL-6 [8] = details: Rat, nerve injured; oral gavage 0.05-1 mg/kg for 7 days; M1
Source text: (§1) The specific experimental details are provided in Padi, 2012 (12).

TNFα [9] = details: Rat, nerve injured, oral gavage 0.05-1 mg/kg for 7 days, M1
Source text: as §1

MIP-1α (CCL3) = details: Rat, nerve injured, oral gavage 0.05-1 mg/kg for 7 days, M1
Source text: as §1

MCP-1 (CCL2) = details: Rat, nerve injured, oral gavage 0.05-1 mg/kg for 7 days, M1
Source text: as §1

IL-1β = details: Rat, nerve injured, oral gavage 0.05-1 mg/kg for 7 days, M1
Source text: as §1

CCR5 [10] = details: Rat, nerve injured, oral gavage 0.05-1 mg/kg for 7 days, M1
Source text: as §1

CCR2 [11] = details: Rat, nerve injured, oral gavage 0.05-1 mg/kg for 7 days, M1
Source text: as §1

TLR4/MyD88 [12] = details: iDCs, peptide 10-12 M for 30 min, then LPS 100 ng/ml, 48 hrs
Protocol: (§2) To determine whether all-D-TTNYT (SEQ ID NO:1) blocks maturation of antigen-presenting dendritic cells, human PBMC's were isolated from peripheral blood by Ficoll-Paque centrifugation and then monocytes were isolated by negative selection using immunobeads (Miltenyi). Human monocyte derived immature dendritic cells (iDCs) were then generated by treating monocytes with GM-CSF/IL4.
The iDCs were treated with all-D-TTNYT (SEQ ID NO:1), generic name RAP103 (12), at 10-12 M for 30 min. After 30 min LPS (100 ng/ml) was added to the cells and cells were analyzed after 48 hrs. for surface maturation markers using fluorescent labeled antibodies by flow cytometry.

[13] = target: insulin-like growth factor 1 receptor (IGF-1R) (Homo sapiens, UniProt P08069)
Chain of insulin-like growth factor 1 receptor (IGF-1R) (P08069 31-736 limits assumed): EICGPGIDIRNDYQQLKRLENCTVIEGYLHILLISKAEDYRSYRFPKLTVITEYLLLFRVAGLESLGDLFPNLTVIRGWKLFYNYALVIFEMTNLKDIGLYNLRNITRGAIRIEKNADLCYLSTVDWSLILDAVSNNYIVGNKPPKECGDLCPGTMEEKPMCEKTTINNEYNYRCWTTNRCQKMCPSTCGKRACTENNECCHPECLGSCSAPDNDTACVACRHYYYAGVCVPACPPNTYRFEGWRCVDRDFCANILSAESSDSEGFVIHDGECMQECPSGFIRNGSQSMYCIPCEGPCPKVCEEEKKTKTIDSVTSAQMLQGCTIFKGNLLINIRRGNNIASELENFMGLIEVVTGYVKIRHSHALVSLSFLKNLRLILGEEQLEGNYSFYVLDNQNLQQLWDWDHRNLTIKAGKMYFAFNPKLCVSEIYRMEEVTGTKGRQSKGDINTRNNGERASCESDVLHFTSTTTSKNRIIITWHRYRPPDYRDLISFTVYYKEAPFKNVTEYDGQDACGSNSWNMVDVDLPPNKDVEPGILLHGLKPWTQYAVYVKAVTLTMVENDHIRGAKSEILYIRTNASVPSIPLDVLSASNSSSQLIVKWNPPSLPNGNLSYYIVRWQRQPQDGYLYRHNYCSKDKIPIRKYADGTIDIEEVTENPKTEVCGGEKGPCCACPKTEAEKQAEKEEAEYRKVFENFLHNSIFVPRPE
Protocol: as §2
The iDCs were treated with all-D-TTNYT (SEQ ID NO:1), generic name RAP103 (12), at 10-12 M for 30 min. […]

CCR5 [14] = target: CCR5 (Homo sapiens, UniProt P51681); details: 30 min pretreatment, CCL4 50 ng/mL for 90 min, FIG. 2, cited from earlier work
Chain of CCR5 (Homo sapiens, UniProt P51681) (P51681 whole entry): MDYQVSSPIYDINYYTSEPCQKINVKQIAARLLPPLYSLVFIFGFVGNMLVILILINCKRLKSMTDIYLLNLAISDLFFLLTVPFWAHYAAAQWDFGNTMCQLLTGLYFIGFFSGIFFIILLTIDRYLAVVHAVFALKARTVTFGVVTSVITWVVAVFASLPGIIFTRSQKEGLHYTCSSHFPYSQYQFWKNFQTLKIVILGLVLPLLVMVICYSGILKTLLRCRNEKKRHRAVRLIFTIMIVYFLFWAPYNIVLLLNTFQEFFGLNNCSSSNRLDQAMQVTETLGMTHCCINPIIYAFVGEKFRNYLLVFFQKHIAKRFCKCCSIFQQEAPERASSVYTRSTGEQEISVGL

response to bradykinin = details: amounts up to 50,000 times the standard challenge of bradykinin; cited from earlier work
[15] = target: CCR2 receptor on human monocytes (human) (UniProt P41597); assay: cell-based or functional assay
[16] = listed as all-D-pentapeptide TTNYT

CCL4 (MIP-1β) (from UniProt P13236 24-92) (ligand)
chemotactic index of human monocytes, without RAP-103 (times over control) [1]: 2

Dala1-peptide T-amide [DAPTA]
cognition [2]: improved
functional brain imaging [2]: improved
speed of information processing [2]: improved
NFkB Change (NFkB): decrease
IL-6 Change (IL-6 [3]): reduced; also recorded: decrease
IL-1 Change (IL-1): reduced; also recorded: decrease
IL-10 Change (IL-10): elevated; also recorded: increase
TNFα Change (TNFα [4]): reduced; also recorded: decrease
activated microglial mediated neurotoxicity and release of cytokines and chemokines (activated microglia): blocked
loss of neurons with aging (activated microglia): prevented
CCL5 facilitated release of aspartate (CCL5): blocked
ICAM-1 Change (ICAM-1): decrease
TLR4/MyD88 Change (TLR4/MyD88 [5]): decrease
IL-4 Change (IL-4): elevated; also recorded: increase
IL-23 Change (IL-23): decrease
STAT3 Change (STAT3): decrease
IL-13 Change (IL-13): elevated; also recorded: increase
IL-8 Change (IL-8): reduced; also recorded: decrease

all-D-NTSYR: all-D-version of DAPTA related pentapeptide NTSYR ([dN][dT][dS][dY][dR])
CCL2 (MCP-1) human monocyte chemotaxis (CCR2 [6]): antagonists

all-D-SSTYR: all-D-version of DAPTA related pentapeptide SSTYR ([dS][dS][dT][dY][dR])
CCL2 (MCP-1) human monocyte chemotaxis (CCR2 [6]): antagonists

all-D-TTNYT
MCP-1 (CCL2)-elicited chemotaxis of human monocytes (CCR2 [7]): potently blocking
MCP-1 (CCL2)-elicited chemotaxis of human monocytes (CCR2 [7]; listed as RAP-103): dual-antagonist
IL-6 Change (IL-6 [8]): decrease
TNFα Change (TNFα [9]): decrease
TNFα Change (TNFα [9]; [16]): lowering
MIP-1α (CCL3) Change (MIP-1α (CCL3)): decrease
MIP-1α (CCL3) Change (MIP-1α (CCL3); [16]): lowering
MCP-1 (CCL2) Change (MCP-1 (CCL2)): decrease
MCP-1 (CCL2) Change (MCP-1 (CCL2); [16]): lowering
IL-1β Change (IL-1β): decrease
IL-1β Change (IL-1β; [16]): lowering
CCR5 Change (CCR5 [10]): decrease
CCR5 Change (CCR5 [10]; [16]): lowering
CCR2 Change (CCR2 [11]): decrease
CCR2 Change (CCR2 [11]; [16]): lowering
CD58 (adhesion molecule) expression (TLR4/MyD88 [12]): reduced
CD86 expression (TLR4/MyD88 [12]): reduced
HLA-DR expression (TLR4/MyD88 [12]): reduced
ICAM1 (adhesion molecule) expression (TLR4/MyD88 [12]): reduced
TLR4-mediated maturation of antigen presenting dendritic cells (TLR4/MyD88 [12]): blocks
DC maturation of these four markers caused by LL37 [13]: no effect
MIP-1β (CCL4)-elicited chemotaxis of human monocytes (CCR5 [14]): potently blocking
MIP-1β (CCL4)-elicited chemotaxis of human monocytes (CCR5 [14]; listed as RAP-103): dual-antagonist

all-D-TTSYT: all-D-version of DAPTA related pentapeptide TTSYT ([dT][dT][dS][dY][dT])
CCL2 (MCP-1) human monocyte chemotaxis (CCR2 [6]): antagonists

all-D-bradykinin
inhibition of the response to bradykinin or bradykinin-like effect (response to bradykinin): neither any inhibition of the response to bradykinin, or any bradykinin-like effect

human CCL2 (MCP-1) (from UniProt P13500 24-99) (ligand)
chemotactic index of human monocytes, without RAP-103 (times over control) [15]: 2.5 to 3.5
